# Data: patent US8853257B2, “Succinimide derivatives as ocular hypotensive agents” (priority 2005, dated 2014)
# Where “and” joins values, the source holds several entries; their conditions need not be identical. Equal entries are not always repeated.
# What was measured:
# [1] = tested on: Dark Agauti (DA) pigmented rats; test: Effect of topical ethosuximide on intraocular pressure in rats (Tono-Pen); assay type: in vivo; conditions: for IOP, treated eye (T), individual rats: one value per rat; for IOP, treated eye (T), Average X: rats
# Method: Preliminary ocular pharmacodynamic studies were conducted to study the effect of ethosuximide on the intraocular pressure in rats by measuring IOP before and after administration of ethosuximide. IOP measurements were taken by a tonopen instrument. Ethosuximide was applied as a viscous solution obtained from Petnidan® capsules (Desitin, Hamburg, Germany). A recent study at Alcon Research laboratory (Pang I H, Wang W H, Clark A F: Acute effects of glaucoma medications on rat intraocular pressure, Exp Eye Res 2005, February; 80(2)207-14) has shown rats to be a proper animal model for glaucoma study. Another study at the Casey Eye Institute (Moore C G, Milne S T, Morrison J C: Noninvasive measurements of rat intraocular pressure with the Tono-Pen. Invest. Opthalmol. Vis. Sci. 1993 February; 34(2)363-9) has shown that a tonopen can be used reliably to measure IOP in normal rat eye.
# Six Dark Agauti (DA) pigmented rats, (250-300 g in weight) were slightly sedated with 1.5-2 mg (0.15-0.2 ml) of intraperitoneal xylazine. One eye of each rat was randomly selected to receive topical administration of 50 µl of 250 mg/0.2 ml ethosuximide solution (content of Petnidan capsules). The second (control) eye received 50 µl of viscoelastic solution without the active ingredient (Viscotears™ manufactured by Novartis, Switzerland). At t=0 (immediately before) and at 30, 60 and 120 minutes after administration, topical anesthetic benoxinate was applied to both eyes and the intraocular pressures (IOP) were measured by a Tono-Pen XL tonometer (Medtronics). IOP values were recorded as the mean value of 6-10 successive measurements to minimize variability. The code, namely which eye of a pair was treated, was unknown to the technician who performed the IOP measurements. One rat expired after 1 hour due to excessive sedation. Five rats completed the experiment. In 2 out of 6 eyes that received the drug (vs. 1 of 6 eyes that were administered viscoelastic vehicle) a mild to moderate limbal vascular congestion was noticed, which tended to subside at 60 minutes.
# At the end of the experiment, the code was broken and the IOP values in control and treated eyes were compared by statistical analysis.
# [2] = tested on: normo-tensive New Zealand White (NZW) rabbits; test: Effect of topical ethosuximide on intraocular pressure in rabbits (Tono-Pen); assay type: in vivo; conditions: for IOP, treated eye (T), individual rabbits: one value per rabbit
# Method: Another study was conducted, in order to study the effect of ethosuximide on the intraocular pressure in rabbits by measuring IOP before and after administration of ethosuximide. IOP measurements were taken by a tonopen instrument. Ethosuximide was applied as a viscous solution obtained from Petnidan® capsules (Desitin, Hamburg, Germany).
# Five fully awake, normo-tensive New Zealand White (NZW) rabbits, (each approximately 3.0 kg in weight) were used in this study. One eye of each rabbit was randomly selected to receive topical administration of 50 μl of 250 mg/0.2 ml ethosuximide solution (content of Petnidan capsules). The second (control) eye received 50 μl of viscoelastic solution without the active ingredient (Viscotears™ manufactured by Novartis, Switzerland). At t=0 (baseline, immediately before) and at 0.5, 1, 2, 4 and 6 hours after administration, topical anesthetic benoxinate was applied to both eyes and the intraocular pressures were measured by a Tono-Pen XL tonometer (Medtronics). IOP values were recorded as the mean value of 6-10 successive measurements to minimize variability. The code, namely which eye of a pair was treated, was (unknown to the technician who performed the IOP measurements. In 3 out of 5 eyes that received the drug (vs. 1 of 5 eyes that were administered viscoelastic vehicle) a mild to moderate limbal vascular congestion was noticed, which tended to subside at 60 minutes. In one treated eye the congestion persisted for two hours. At the end of the experiment, the code was broken and the IOP values in control and treated eyes were compared. The results are summarized in Table 2.
# [3] = 60 min after topical administration
# [4] = 120 min after topical administration
compound,measurement,setting,value
CCC1(C)CC(=O)NC1=O (centres unmarked) [ethosuximide],"IOP, treated eye (T), individual rats",[1]; 30 min after topical 50 ul of 250 mg/0.2 ml ethosuximide solution,17 mmHg and 16 mmHg and 15 mmHg and 15.3 mmHg and 20.5 mmHg and 22 mmHg
same,"IOP, treated eye (T), Average X",[1]; 30 min after topical administration,17.6 mmHg
same,"IOP, treated eye (T), individual rats",[1]; [3],21.3 mmHg (2×) and 30 mmHg and 18 mmHg and 14.6 mmHg
same,"IOP, treated eye (T), Average X",[1]; [3],21.0 mmHg
same,"IOP, treated eye (T), individual rats",[1]; [4],22 mmHg and 17 mmHg and 19 mmHg and 20.5 mmHg and 20.2 mmHg
same,"IOP, treated eye (T), Average X",[1]; [4],19.7 mmHg
same,eyes with mild to moderate limbal vascular congestion,"[1]; rat eyes that received the drug (vs. 1 of 6 vehicle eyes), tended to subside at 60 minutes",2 out of 6
same,"IOP, treated eye (T), individual rabbits",[2]; 0.5 hour after topical 50 μl of 250 mg/0.2 ml ethosuximide solution,17.3 mmHg and 18.3 mmHg and 16.3 mmHg and 19.7 mmHg and 20.0 mmHg
same,"IOP, treated eye (T), Mean","[2]; 0.5 hour, rabbits",18.3 mmHg
same,"IOP, treated eye (T), individual rabbits",[2]; 1 hour after topical administration,12.8 mmHg and 16.0 mmHg and 15.0 mmHg and 19.7 mmHg and 18.5 mmHg
same,"Δ IOP, difference in mean IOP (T − C)","[2]; 1 hour, p .557",−0.6 mmHg
same,"IOP, treated eye (T), Mean","[2]; 1 hour, rabbits",16.0 mmHg
same,"IOP, treated eye (T), individual rabbits",[2]; 2 hours after topical administration,17.3 mmHg and 20.0 mmHg and 19.6 mmHg and 16.3 mmHg and 19.8 mmHg
same,"Δ IOP vs t = o, mean IOP of treated eyes","[2]; 2 hours versus baseline, p .420",−1.4 mmHg
same,"IOP, treated eye (T), Mean","[2]; 2 hours, rabbits",18.6 mmHg
same,"IOP, treated eye (T), individual rabbits",[2]; 4 hours after topical administration,15.5 mmHg and 15.8 mmHg and 13.0 mmHg and 12.5 mmHg and 17.5 mmHg
same,"IOP, treated eye (T), Mean","[2]; 4 hours, rabbits",14.9 mmHg
same,"IOP, treated eye (T), individual rabbits",[2]; 6 hours after topical administration,19.5 mmHg and 20.0 mmHg and 13.5 mmHg and 19.4 mmHg and 16.0 mmHg
same,"Δ IOP vs t = o, mean IOP of treated eyes","[2]; 6 hours versus baseline, p .404",−2.3 mmHg
same,"Δ IOP, difference in mean IOP (T − C)","[2]; 6 hours, p .920",+0.1 mmHg
same,"IOP, treated eye (T), Mean","[2]; 6 hours, rabbits",17.7 mmHg
same,eyes with mild to moderate limbal vascular congestion,"[2]; rabbit eyes that received the drug (vs. 1 of 5 vehicle eyes), tended to subside at 60 minutes",3 out of 5
same,treated eyes in which the congestion persisted for two hours,[2]; rabbits,one
